Patent US20170112775A1, “SITU SELF-ASSEMBLING PRO-NANOPARTICLE COMPOSITIONS AND METHODS OF PREPARATION AND USE THEREOF” (University of North Texas Health Science Center, priority 2015, published 2017)
Where a name gives a salt, the structure may show the parent alone. Read-outs that look alike come from different tables or passages of the source. Blank lines part the entries; values can stand above or below the molecule they belong to.

Experiments:
[1] = PK study after subcutaneous injection; assay type: in vivo, Sprague Dawley rats; settings: male, Sprague Dawley, rat, plasma, sc, after 6 days, one subcutaneous injection of LPV/RTV ISNPs
Experimental: Animal studies were performed in compliance with guidelines set by the University of North Texas Health Science Center Institutional Animal Care and Use Committees. Rats were housed in groups of 2 under a 12-h light/dark cycle with free access to food and water for 1 week before use. Sprague Dawley rats (males, 276-300 g, n=4) were purchased from Charles River Laboratories (Wilmington, Mass.). Pharmacokinetic studies were conducted to evaluate the pharmacokinetic profiles of LPV and RTV from LPV/RTV ISNPs. Rats were treated with 100 ul of LPV/RTV ISNPs to provide 100 mg/kg of LPV by subcutaneous injection. After the injection, the inventor collected the blood at 0, 1, 2, 3, 5, 6, 24 hours and 2, 3, 4, 5, 6 days. The blood was immediately centrifuged at 3400 rpm for 5 min at 4° C., and 100 ul of plasma samples were transferred to a new tube and stored at −20° C. until further analysis within 3 weeks. LPV and RTV concentrations in the plasma were determined by liquid chromatography-mass spectrometry (LC-MS, an Agilent G6460 Triple Quad LC-MS system) using a previously reported method.

[2] = Solubility screening in oils and surfactants; assay type: physicochemical
Experimental: These studies were performed to test the solubility of RTV in oils and surfactants. Briefly, oils and surfactants were accurately weighed into glass vials. Certain amounts of […] were added into the glass vials. The vials were stirred on the hot plate maintained at 65° C. for 3 min. The solubilization was monitored by eyes and the drug solubility (w/w) was estimated.
These studies were performed to test the solubility in oils and surfactants. The solubility of DTX was determined in oils (oleic acid, Migloyl 812, Kollisolv® MCT70, Kolliwax® GMSI, Imwitor® 960, and Labrafac) and surfactants (TPGS, Poloxamer 188, Tween 20, and Tween 80). Oils and surfactants were accurately weighed into glass vials. Excess amounts of DTX were added into glass vials containing vehicles. The vials were stirred on the hot plate maintained at 65° C. for 3 min. The drug solubility (w/w) was calculated.
These studies were performed to test the solubility in oils and surfactants. The solubility of CUR was determined in oils (Migloyl 812 N, Migloyl 829, Imwitor 491, Kollisolv MCT70, labrafac, Imwitor 900K, Imwitor 960 and Campriltol 888) and surfactants (Tween 20, Tween 80, Labrasol, Poloxamer 188, TPGS and Gelucire 44/14). Oils and surfactants were accurately weighed into glass vials. Excess amounts of CUR were added into glass vials containing vehicles. The vials were stirred on the hot plate maintained at 65° C. for 3 min. The drug solubility (w/w) was calculated.

[3] = tested on: PC3 sensitive prostate cancer cell line; assay: MTT cytotoxicity, PC3 sensitive; assay type: cell-based; settings: Homo sapiens, 72 hr
Experimental: (§1) The cytotoxicity of DTX MT NPs was tested in PC3 and DU145 sensitive and resistant cell using MTT [3-(4,5-dimethylthiazol-2-yl)-2,5-diphenyltetrazolium bromide] assay. Cells were seeded into 96-well plates with a density of 7,000 cells/well and incubated at 37° C. for 24 hr under 5% CO2. Following that, cells were treated with a drug equivalent concentration ranging from 0.5-10,000 nM for DTX, DTX MT NPs, and blank NPs. Due to low water solubility, DTX was dissolved with DMSO. After 72 hr of incubation, the medium was removed from each well and replaced with 90 μL of DMEM medium without phenol red and 10 μL of MTT (5 mg/mL in PBS). The plates were incubated at 37° C. with 5% CO2 for 4 hr. […] The absorbance was measured at a test wavelength of 570 nm and a reference wavelength of 650 nm in a microplate reader (Synergy H1 hybrid Multi-Mode Microplate Reader)
(§2) The cytotoxicity of CUR MT NPs was tested in DU145 and PC-3 human prostate cancer cell lines using MTT [3-(4,5-dimethylthiazol-2-yl)-2,5-diphenyltetrazolium bromide] assay. […] After 72 hr of incubation, the medium was removed from each well and replaced with 90 μL of DMEM medium without phenol read and MTT (10 μL of 5 mg/mL in PBS). […] The absorbance was measured at a test wavelength of 570 nm and a reference wavelength of 650 nm in a microplate reader (Beckman Coulter, Inc.).

[4] = tested on: DU145 sensitive prostate cancer cell line; assay: MTT cytotoxicity, DU145 sensitive; assay type: cell-based; settings: Homo sapiens, 72 hr
Experimental: as §1, §2

[5] = tested on: PC3 resistant prostate cancer cell line; assay: MTT cytotoxicity, PC3 resistant; assay type: cell-based; settings: Homo sapiens, 72 hr
Experimental: as §1, §2

[6] = tested on: DU145 resistant prostate cancer cell line; assay: MTT cytotoxicity, DU145 resistant; assay type: cell-based, human; settings: for IC50: Homo sapiens, 72 hr, MTT
Experimental: The cytotoxicity of DTX MT NPs was tested in PC3 and DU145 sensitive and resistant cell using MTT [3-(4,5-dimethylthiazol-2-yl)-2,5-diphenyltetrazolium bromide] assay. Cells were seeded into 96-well plates with a density of 7,000 cells/well and incubated at 37° C. for 24 hr under 5% CO2. Following that, cells were treated with a drug equivalent concentration ranging from 0.5-10,000 nM for DTX, DTX MT NPs, and blank NPs. Due to low water solubility, DTX was dissolved with DMSO. After 72 hr of incubation, the medium was removed from each well and replaced with 90 μL of DMEM medium without phenol red and 10 μL of MTT (5 mg/mL in PBS). The plates were incubated at 37° C. with 5% CO2 for 4 hr. Formazan produced by mitochondria enzymes of living cells was dissolved in 150 μL of isopropanol containing 0.04 N HCl for 5 min. The absorbance was measured at a test wavelength of 570 nm and a reference wavelength of 650 nm in a microplate reader (Synergy H1 hybrid Multi-Mode Microplate Reader)
The cytotoxicity of CUR MT NPs was tested in DU145 and PC-3 human prostate cancer cell lines using MTT [3-(4,5-dimethylthiazol-2-yl)-2,5-diphenyltetrazolium bromide] assay. Cells were seeded into 96-well plates at 7,000 cells/well and incubated 37° C. for 24 hr under 5% CO2. After overnight incubation, cells were treated with drug concentration ranging from 0-27 μM for CUR, CUR MT NPs, and blank NPs. Due to low water solubility, CUR was dissolved with DMSO. After 72 hr of incubation, the medium was removed from each well and replaced with 90 μL of DMEM medium without phenol read and MTT (10 μL of 5 mg/mL in PBS). After incubating for 4 hr at 37° C. with 5% CO2, 0.04 N HCl/isopropanol was added to each well and incubated for 5 min to dissolve formazan crystals formed by viable cells. The absorbance was measured at a test wavelength of 570 nm and a reference wavelength of 650 nm in a microplate reader (Beckman Coulter, Inc.).

cancer cells = settings: cited from earlier work
[7] = cited from earlier work

concentration at 6 days ([1]; read-out: RTV Ctrough): ~50 ng/mL
SMILES: CC(C)c1nc(CN(C)C(=O)N[C@H](C(=O)N[C@@H](Cc2ccccc2)C[C@H](O)[C@H](Cc2ccccc2)NC(=O)OCc2cncs2)C(C)C)cs1 [ritonavir]

Estimated solubility ([2]; in Brij 78, 65° C.): 0.4725 mg/mg
Estimated solubility ([2]; in Glyceryl behenate, 65° C.): 0.0744 mg/mg
Estimated solubility ([2]; in Kollisolv MCT70, 65° C.): 0.0779 mg/mg
Estimated solubility ([2]; in Kolliwax GMS I, 65° C.): 0.5846 mg/mg
Estimated solubility ([2]; in Miglyo812, 65° C.): 0.0703 mg/mg
Estimated solubility ([2]; in Oleic acid, 65° C.): 1.19 mg/mg
Estimated solubility ([2]; in TPGS, 65° C.): 0.6012 mg/mg
concentration at 6 days ([1]; 100 mg/kg of LPV, read-out: LPV Ctrough): > 160 ng/mL
SMILES: Cc1cccc(C)c1OCC(=O)N[C@@H](Cc1ccccc1)[C@@H](O)C[C@H](Cc1ccccc1)NC(=O)[C@H](C(C)C)N1CCCNC1=O [lopinavir]
Estimated solubility ([2]; in Killiphor P 188/Poloxamer F68, 65° C.): 0.3431 mg/mg

Solubility (w/w) ([2]; in Campriltol 888, 65° C.): 0.0160 w/w
Solubility (w/w) ([2]; in Gelucire 44/14, 65° C.): 0.153 w/w
Solubility (w/w) ([2]; in Imwitor 491, 65° C.): 0.0261 w/w
Solubility (w/w) ([2]; in Imwitor 900K, 65° C.): 0.0512 w/w
Solubility (w/w) ([2]; in Imwitor 960, 65° C.): 0.0488 w/w
Solubility (w/w) ([2]; in Kollisolv MCT70, 65° C.): 0.0179 w/w
Solubility (w/w) ([2]; in Labrafac, 65° C.): 0.0120 w/w
Solubility (w/w) ([2]; in Labrasol, 65° C.): 0.173 w/w
Solubility (w/w) ([2]; in Migloyl 812 N, 65° C.): 0.0153 w/w
Solubility (w/w) ([2]; in Migloyl 829, 65° C.): 0.0210 w/w
Solubility (w/w) ([2]; in Poloxamer 188, 65° C.): 0.153 w/w
Solubility (w/w) ([2]; in TPGS, 65° C.): 0.164 w/w
Solubility (w/w) ([2]; in Tween 20, 65° C.): 0.166 w/w
Solubility (w/w) ([2]; in Tween 80, 65° C.): 0.141 w/w
SMILES: COc1cc(/C=C/C(=O)CC(=O)/C=C/c2ccc(O)c(OC)c2)ccc1O [Curcumin]
IC50 ([3]; PC-3 sensitive): 7.9 ± 0.3 µM
IC50 ([4]; DU-145 sensitive): 7.2 ± 0.4 µM
IC50 ([5]; PC-3 resistance): 7.7 ± 0.1 µM
IC50 ([6]; DU-145 resistance): 10 ± 0.5 µM
IC50 higher in resistant DU145 than in sensitive DU145 ([6]; resistant vs sensitive DU145): 1.4 fold
Concentration with anticancer effects (cancer cells): 5 to 30 µM

SMILES: COC(=O)N[C@H](C(=O)N[C@@H](Cc1ccccc1)[C@@H](O)CN(Cc1ccc(-c2ccccn2)cc1)NC(=O)[C@@H](NC(=O)OC)C(C)(C)C)C(C)(C)C [ATV, atazanavir]
Bioavailability ([7]; without food): about 20%

SMILES: CC(C)OC(=O)OCOP(=O)(CO[C@H](C)Cn1cnc2c(N)ncnc21)OCOC(=O)OC(C)C [TDF, tenofovir disoproxil fumarate]
Bioavailability ([7]; oral): 25%

Solubility (w/w) ([2]; in Imwitor 960K, 65° C.): 0.053 w/w
Solubility (w/w) ([2]; in Kollisolv MCT70, 65° C.): 0.038 w/w
Solubility (w/w) ([2]; in Kolliwax GMS I, 65° C.): 0.025 w/w
Solubility (w/w) ([2]; in Labrafac, 65° C.): 0.022 w/w
Solubility (w/w) ([2]; in Migloyl 812, 65° C.): 0.079 w/w
Solubility (w/w) ([2]; in Oleic acid, 65° C.): 0.066 w/w
Solubility (w/w) ([2]; in Poloxamer 188, 65° C.): 0.019 w/w
Solubility (w/w) ([2]; in TPGS, 65° C.): 0.008 w/w
Solubility (w/w) ([2]; in Tween 20, 65° C.): 0.052 w/w
Solubility (w/w) ([2]; in Tween 80, 65° C.): 0.082 w/w
SMILES: CC(=O)O[C@@]12CO[C@@H]1C[C@H](O)[C@@]1(C)C(=O)[C@H](O)C3=C(C)[C@@H](OC(=O)[C@H](O)[C@@H](NC(=O)OC(C)(C)C)c4ccccc4)C[C@@](O)([C@@H](OC(=O)c4ccccc4)[C@H]21)C3(C)C [docetaxel]
IC50 ([3]; PC3 sensitive): 0.007 ± 0.0004 µM
IC50 ([4]; DU-145, DU145 sensitive): 0.0068 ± 0.0005 µM
IC50 ([5]; PC3 resistance): 0.0753 ± 0.0027 µM
IC50 ([6]; DU-145, DU145 resistance): 0.87 ± 0.0854 µM

SMILES: CN(Cc1cnc2nc(N)nc(N)c2n1)c1ccc(C(=O)N[C@@H](CCC(=O)O)C(=O)O)cc1 [MTX, methotrexate]
Bioavailability ([7]; oral): 30%

SMILES: Nc1nc(=O)n([C@@H]2CS[C@H](CO)O2)cc1F [FTC, emtricitabine]
Bioavailability ([7]; oral): over 98%
